Experimental findings from patent publication US9808008B2, “Synergistic pesticidal compositions and related methods” (Dow AgroSciences LLC, priority 2013, dated 2017) are described below.

Common to all, as to assay type: in vivo
The subject of assay [1] is Western plant bug (Lygus bug), Lygus hesperus (Knight). As to the kind of experiment: Treated bean piece bioassay against Western plant bug (Lygus bug), synergy by Colby's equation. The following applies: Lygus bugs. The source says:
The method described in Colby S. R., “Calculating Synergistic and Antagonistic Responses of Herbicide Combinations,” Weeds, 1967, 15, 20-22 was used to determine an existence of synergic effect between the nAChR allosteric activator compound and the pesticide (I), (II), or any agriculturally acceptable salt thereof in the formulated pesticidal composition. In this method, the percent insect control of the formulated pesticidal composition as observed in the study was compared to the “expected” percent control (E) as calculated by equation (1) (hereinafter “Colby's equation”) below: [formula] where X is the percentage of control with the first pesticide at a given rate (p), Y is the percentage of control with the second pesticide at a given rate (q), and E is the expected control by the first and second pesticide at a rate of p+q. […] A pesticidal composition was prepared by thoroughly mixing about 0.04 weight % of compound I with about 0.00125 weight % of spinetoram. The active compounds were formulated in a 10% acetone solution with 0.025% non-ionic surfactant, TWEEN® 20. Bioassays were performed for each different active solution. Bean pieces (about one inch-long) were used for the tests. Four bean pieces were placed in each tested active solution and left there for 10 minutes. Bean pieces were taken out of the active solution, and each piece was placed in a well in a 32-well tray and allowed to air dry. Three third-instar nymphs of Western plant bug (Lygus bug), Lygus hesperus (Knight), were infested into each well. The percent control of the pesticidal composition against Lygus bug was determined as the “Observed” action, and compared to those obtained by using about 0.04 weight % of compound I, and using about 0.00125 weight % of spinetoram alone. The “Colby's Expected Action” was calculated using Colby's equation as discussed previously. A pesticidal composition was prepared by thoroughly mixing about 0.04 weight % of compound I with about 0.005 weight % of spinetoram. The bioassays were performed wherein different active compounds were tested against Western plant bug (Lygus bug), Lygus hesperus (Knight), using the procedure described in example 4A.

In assay [2] the test system is diamondback moth, Plutella xylostella. As to the kind of experiment: Track-sprayed cabbage plant bioassay against diamondback moth, synergy by Colby's equation. The following applies: Spinetoram alone, dose rate 0.0003125 weight %. The source says:
The method described in Colby S. R., “Calculating Synergistic and Antagonistic Responses of Herbicide Combinations,” Weeds, 1967, 15, 20-22 was used to determine an existence of synergic effect between the nAChR allosteric activator compound and the pesticide (I), (II), or any agriculturally acceptable salt thereof in the formulated pesticidal composition. In this method, the percent insect control of the formulated pesticidal composition as observed in the study was compared to the “expected” percent control (E) as calculated by equation (1) (hereinafter “Colby's equation”) below: [formula] where X is the percentage of control with the first pesticide at a given rate (p), Y is the percentage of control with the second pesticide at a given rate (q), and E is the expected control by the first and second pesticide at a rate of p+q. […] Bioassays were performed for different active compounds. Cabbage plants with about two to three new-growth-true leaf stage were treated with different active compounds using a track sprayer at a volume of 400 L/Ha. Three second instar diamondback moth, Plutella xylostella, were infested onto each leaf disc. […] The “Colby's Expected Action” was calculated using Colby's equation as discussed previously.

Assay [3] deals with cotton aphid, Aphis gossypii (Glover). The assay can be described thus: Track-sprayed cotton plant bioassay against cotton aphid, synergy by Colby's equation. The following applies: Spinetoram alone, dose rate 0.005 weight %. The text has this: The method described in Colby S. R., “Calculating Synergistic and Antagonistic Responses of Herbicide Combinations,” Weeds, 1967, 15, 20-22 was used to determine an existence of synergic effect between the nAChR allosteric activator compound and the pesticide (I), (II), or any agriculturally acceptable salt thereof in the formulated pesticidal composition. In this method, the percent insect control of the formulated pesticidal composition as observed in the study was compared to the “expected” percent control (E) as calculated by equation (1) (hereinafter “Colby's equation”) below: [formula] where X is the percentage of control with the first pesticide at a given rate (p), Y is the percentage of control with the second pesticide at a given rate (q), and E is the expected control by the first and second pesticide at a rate of p+q. […] The percent control of the pesticidal composition against cotton aphid, Aphis gossypii (Glover), was determined as the “Observed” action, and compared to those obtained by using about 0.0020 weight % of compound II, and using about 0.005 weight % of spinetoram alone. The “Colby's Expected Action” was calculated using Colby's equation as discussed previously.

In assay [4] the test system is South American brown stink bug, Euschistus heros. The assay can be described thus: Treated bean piece bioassay against South American brown stink bug, synergy by Colby's equation. To be noted: Spinetoram alone, dose rate 0.0000039 weight %. The source says: The method described in Colby S. R., “Calculating Synergistic and Antagonistic Responses of Herbicide Combinations,” Weeds, 1967, 15, 20-22 was used to determine an existence of synergic effect between the nAChR allosteric activator compound and the pesticide (I), (II), or any agriculturally acceptable salt thereof in the formulated pesticidal composition. In this method, the percent insect control of the formulated pesticidal composition as observed in the study was compared to the “expected” percent control (E) as calculated by equation (1) (hereinafter “Colby's equation”) below: [formula] where X is the percentage of control with the first pesticide at a given rate (p), Y is the percentage of control with the second pesticide at a given rate (q), and E is the expected control by the first and second pesticide at a rate of p+q. […] The percent control of the pesticidal composition against South American brown stink bug, Euschistus heros, was determined as the “Observed” action, and compared to those obtained by using about 0.04 weight % of compound I, and using about 0.0000039 weight % of spinetoram alone. The “Colby's Expected Action” was calculated using Colby's equation as discussed previously.

On to `CCN(C(=O)CCSCCC(F)(F)F)c1cn(-c2cccnc2)nc1Cl` [Compound I, N-(3-chloro-1-(pyridin-3-yl)-1H-pyrazol-4-yl)-N-ethyl-3-((3,3,3-trifluoropropyl)thio)propanamide], for which the “% Control Three Days After Treatment” value is recorded as “no control” in assay [1] (Example 8A, Compound I alone, dose rate 0.04 weight %); 0% in assay [1] (Example 8B, Compound I alone, dose rate 0.04 weight %); “no control” in assay [1] (Example 8B, Compound I alone, dose rate 0.04 weight %, listed as compound I).
With Spinetoram, the “% Control Three Days After Treatment” value is reported as 54.17% in assay [2]; 2% in assay [3]; 0% in assay [1] (Example 8A, Spinetoram alone, dose rate 0.00125 weight %); “no control” in assay [1] (Example 8A, Spinetoram alone, dose rate 0.00125 weight %, listed as spinetoram); 0% in assay [1] (Example 8B, Spinetoram alone, dose rate 0.005 weight %); “no control” in assay [1] (Example 8B, Spinetoram alone, dose rate 0.005 weight %, listed as spinetoram). For the same compound, the “% Control Four Days After Treatment” value in assay [4] is on record as 25%.
